The target of test [1] is T1, CYP11A1 (Homo sapiens, UniProt P05108).
T1 construct: measuring the cellular production of pregnenolone (P) catalyzed by CYP11A1; host or cells: NCI-H295R
T1 sequence (P05108 40-521): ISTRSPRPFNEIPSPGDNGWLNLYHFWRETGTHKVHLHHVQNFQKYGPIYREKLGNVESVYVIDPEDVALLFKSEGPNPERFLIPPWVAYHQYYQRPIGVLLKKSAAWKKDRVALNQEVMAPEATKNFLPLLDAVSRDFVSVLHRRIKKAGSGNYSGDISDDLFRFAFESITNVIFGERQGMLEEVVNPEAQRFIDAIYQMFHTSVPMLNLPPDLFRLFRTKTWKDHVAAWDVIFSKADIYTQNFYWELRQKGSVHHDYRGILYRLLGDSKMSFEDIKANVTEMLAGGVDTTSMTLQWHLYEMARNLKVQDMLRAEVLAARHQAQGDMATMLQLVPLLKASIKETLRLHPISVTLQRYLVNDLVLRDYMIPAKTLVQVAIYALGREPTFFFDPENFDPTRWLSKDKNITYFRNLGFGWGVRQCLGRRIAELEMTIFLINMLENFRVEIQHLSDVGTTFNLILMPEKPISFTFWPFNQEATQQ
Description: H295R Steroid Biosynthesis Inhibition Assay - inhibition of pregnenolone (P) production catalyzed by CYP11A1 in NCI-H295R cells. Format: cell-based. The settings on record: 48 h, LC-MS/MS, read-out: Inh. of P IC50. The protocol:
(§1) Steroid Biosynthesis Inhibition by test compounds in NCI-H295R cells (ATCC) was studied by measuring the cellular production of pregnenolone (P) catalyzed by CYP11A1 and the downstream steroid, testosterone (T). Cells were cultured in Dulbecco's modified eagle's medium F12 (DMEM/F12) with phenol red (Gibco, Cat. No. 11330032) supplemented with 2% UltroserG (Pall, Cat. No. 15950-017, USA), 1% ITS-Premix and 1% penicillin and streptomycin (Hyclone, Cat. No. SV30010, USA). Prior to the assay, cells were thawed and passed 4 times. The maximal passage number used for the assay was 10. For this assay, DMEM/F12 without phenol red supplemented with 10% charcoal-stripped fetal bovine serum (VivaCell, Cat. No. C3830-0500, USA) were used. In a 96-well plate, 60,000 cells/well were plated (90 μL/well) and incubated for 24 h. Test compounds, diluted in a serial dilution ranging from 1000 nM to 0.15 nM in the assay medium, were added to the plate. After 48 h of incubation, solution from each well were collected and transferred to individual 1.5 mL centrifuge tubes, and then 5 ng/mL deuterated testosterone (D3-testosterone) and 50 ng/mL deuterated pregnenolone (D4-pregnenolone) in 200 μL acetonitrile were added. After vigorously mixing for 5 min, the mixture was centrifuged at 12,700 rpm for 15 min. An aliquot of 250 μL supernatant was collected and dried under N2 stream. After addition of 150 μL Methanol:water (1:1, v/v) to the dried product, 50 μL sample of this solution was injected into the LC-MS/MS system for analysis.
(§2) The half-maximal inhibitory concentration (IC50) for steroid biosynthesis inhibition was determined by curve-fitting with the 4-variable inhibitory dose response equation using GraphPad Prism software.
(§3) Testosterone and pregnenolone were analyzed using Shimadzu LC30AD HPLC system (Shimadzu, Kyoto, Japan) coupled with AB SCIEX Qtrap 5500 triple quadrupole mass spectrometer (AB Sciex, Framingham, MA, USA) via ESI interface in the positive ionization mode. An ACQUITY UPLC BEH Shield RP18 column (1.7 μm, 2.1×50 mm, Milford, MA, USA) maintained at 40° C. was used to separate analytes and IS form the sample matrix.
(§4) The mobile phase was a mixture of 10 mM ammonium acetate in water containing 0.2% formic acid (A) and methanol containing 0.2% formic acid (B) at a flow rate of 0.6 mL/min. The gradient program was set as follows: from 0 min to 0.5 min, 60% B; from 0.5 min to 3.5 min, 90% B; from 3.5 min to 4.5 min, 90% B; from 4.51 min to 5.0 min, 60% B. The injection volume was […].
(§5) The MS/MS parameters were set as follows: ion spray voltage, 5500 V; curtain gas, 35 psi; Gas 1, 55 psi; Gas 2: 55 psi; temperature, […]. The optimized multiple reaction monitoring (MRM) fragmentation transitions and MS parameters of each analyte are summarized in Table 1.

The target in test [2] is T2, testosterone (T) production in NCI-H295R cells (Homo sapiens, UniProt P05108).
T2 construct: testosterone measured by LC-MS/MS as downstream steroid
T2 sequence (P05108 40-521): T1 sequence (P05108 40-521)
As to the kind of experiment: H295R Steroid Biosynthesis Inhibition Assay - inhibition of testosterone (T) production in NCI-H295R cells. The test is classed as cell-based. The settings on record: 48 h, LC-MS/MS, read-out: Inh. of T IC50. Here is the method: as §1, §2, §3, §4, §5

On to `CS(=O)(=O)N1CCC(c2ccc3cc(CN4Cc5ccccc5C4)ncc3c2)CC1` [Compound 68], for which the concentration for half-maximal inhibition (IC50) in test [1] and in test [2] was no more than 40 nM throughout.
`N#C[C@]1(c2cc3oc(CN4Cc5ccccc5C4)cc(=O)c3o2)CC[C@H](O)CC1` [Compound 43]: the IC50 – broadly, the point on the concentration scale where inhibition reaches its midpoint – in test [1] is no more than 40 nM; in test [2], 41 to 100 nM.
The corresponding values for `O=c1cc(CN2Cc3ccccc3C2)oc2cc([C@@H]3CCC[C@@H](O)CC3)oc12` (racemic) [Compound 42] are no more than 40 nM and no more than 40 nM.
The corresponding values for `O=C(NCC(F)(F)F)N1CCC(c2cnc3cc(CN4Cc5ccccc5C4)ccc3n2)CC1` [Compound 120] are no more than 40 nM and 41 to 100 nM.
Consider `OC1CCN(c2ccc3cc(CN4Cc5ccccc5C4)ccc3n2)CC1` [Compound 74], for which the IC50 in test [1] is no less than 100 nM; in test [2], no less than 101 nM.
Taken in the same sequence, the figures for `CN(C)S(=O)(=O)N1CCC(c2cnc3cc(CN4Cc5ccccc5C4)ccc3n2)CC1` [Compound 99] were 40 to 100 nM and 41 to 100 nM.
`Cn1c(C2CCN(S(C)(=O)=O)CC2)nc2cc(CN3Cc4ccccc4C3)ccc21` [Compound 129]: the IC50 in test [1] was no more than 40 nM; in test [2], no less than 101 nM.
The corresponding values for `CS(=O)(=O)N1C[C@@H]2[C@@H](COc3coc(CN4Cc5ccccc5C4)cc3=O)[C@@H]2C1` [Compound 1, 2-(isoindolin-2-ylmethyl)-5-(((1R,5S,6r)-3-(methylsulfonyl)-3-azabicyclo[3.1.0]hexan-6-yl)methoxy)-4H-pyran-4-one] are no more than 40 nM and 41 to 100 nM.
Regarding `CS(=O)(=O)N1CCC(c2ccc3cc(CN4Cc5ccccc5C4)ccc3c2)CC1` [Compound 66], the IC50 in test [1] and in test [2] was no more than 40 nM throughout.
On to `CS(=O)(=O)N1CCC(c2ccc3cc(CN4Cc5ccccc5C4)cnc3c2)CC1` [Compound 67], for which the IC50 in test [1] and in test [2] was no more than 40 nM in each case.
Consider `O=c1cc(CN2Cc3ccccc3C2)oc2cc(C3CCC(F)(F)CC3)oc12` [Compound 26], for which the half-maximal inhibitory concentration (IC50) in test [1] was 40 to 100 nM; in test [2], no less than 101 nM.
With `O=c1cc(CN2Cc3ccccc3C2)oc2cc([C@H]3CC[C@H](O)CC3)oc12` [Compound 29], the IC50 in test [1] and in test [2] was no more than 40 nM each time.
As for `CC(C)(O)[C@H]1CC[C@H](c2cc3oc(CN4Cc5ccccc5C4)cc(=O)c3o2)CC1` [Compound 32], the values for the IC50 in test [1] and in test [2] were 40 to 100 nM and no more than 40 nM, respectively.
In the case of `O=S1(=O)CCC(c2cnc3cc(CN4Cc5ccccc5C4)ccc3n2)CC1` [Compound 124], the half-inhibitory concentration (IC50) was no less than 100 nM in test [1] and no less than 101 nM in test [2].
The corresponding values for `CS(=O)(=O)N1C[C@@H]2[C@H](C1)[C@H]2c1cc2oc(CN3CCn4cccc4C3)cc(=O)c2o1` [Compound 53] are 40 to 100 nM and 41 to 100 nM.
With `CS(=O)(=O)N1CCC(c2cnc3cc(CN4CCn5cccc5C4)ccc3n2)CC1` [Compound 125], the results for the 50% inhibitory concentration (IC50) in test [1] and in test [2] were no less than 100 nM and no less than 101 nM, respectively.
Regarding `CS(=O)(=O)N1CC=C(c2coc3cc(CN4Cc5ccccc5C4)ccc3c2=O)CC1` [Compound 65], the concentration for half-maximal inhibition (IC50) in test [1] and in test [2] was no more than 40 nM throughout.
Regarding `CO[C@H]1CC[C@H](c2cc3oc(CN4Cc5ccccc5C4)cc(=O)c3o2)CC1` [Compound 38], the IC50 in test [1] and in test [2] was no more than 40 nM each time.
As to `CC(C)S(=O)(=O)N1CCC(c2cnc3cc(CN4Cc5ccccc5C4)ccc3n2)CC1` [Compound 94], the IC50 in test [1] and in test [2] was no more than 40 nM throughout.
Regarding `CS(=O)(=O)N1CCC(c2ccc3cc(CN4Cc5ccccc5C4)cnc3n2)CC1` [Compound 78], the IC50 in test [1] and in test [2] was no more than 40 nM throughout.
Take `CC(Oc1ccc(CN2Cc3ccccc3C2)c2cccnc12)C1CCN(S(C)(=O)=O)CC1` (stereo not drawn) [Compound 11]: the IC50 in test [1] was no more than 40 nM; in test [2] it was 41 to 100 nM.
For the molecule `CS(=O)(=O)N1CCC(COc2ccc(C3(N4Cc5ccccc5C4)CC3)c3cccnc23)CC1` [Compound 10], the IC50 in test [1] is 40 to 100 nM; in test [2], no less than 101 nM.
The corresponding values for `CS(=O)(=O)N1CCC2(CC1)CC(c1cc3oc(CN4Cc5ccccc5C4)cc(=O)c3o1)C2` [Compound 22] are no more than 40 nM and no more than 40 nM.
Taken in the same sequence, the figures for `Cn1c(C2CCN(S(C)(=O)=O)CC2)nc2ccc(CN3Cc4ccccc4C3)cc2c1=O` [Compound 63] were no more than 40 nM and no more than 40 nM.
As for `CCCCS(=O)(=O)N1CCC(c2cnc3cc(CN4Cc5ccccc5C4)ccc3n2)CC1` [Compound 93], the IC50 in test [1] and in test [2] was no more than 40 nM each time.
For the molecule `C[C@]1(O)CC[C@@H](c2cc3oc(CN4Cc5ccccc5C4)cc(=O)c3o2)CC1` [Compound 28], the IC50 in test [1] is no more than 40 nM; in test [2], no less than 101 nM.
The corresponding values for `CN(C)C(=O)[C@H]1CC[C@H](c2cc3oc(CN4Cc5ccccc5C4)cc(=O)c3o2)CC1` [Compound 47] are no more than 40 nM and no more than 40 nM.
Turning to `CS(=O)(=O)N1CCC(c2ccc3cc(CN4CCn5cccc5C4)ccc3n2)CC1` [Compound 76], the IC50 in test [1] is 40 to 100 nM; in test [2], no less than 101 nM.
The corresponding values for `CS(=O)(=O)N1CC2(CC(c3ccc4cc(CN5Cc6ccccc6C5)ccc4n3)C2)C1` [Compound 75] are no more than 40 nM and no more than 40 nM.
Regarding `CS(=O)(=O)N1CCC(c2ncc3cc(CN4Cc5ccccc5C4)ccc3n2)CC1` [Compound 82], the IC50 is no more than 40 nM in test [1] and 41 to 100 nM in test [2].
`COc1ccc2c(c1)CN(Cc1ccc3nc(C4CCN(S(C)(=O)=O)CC4)ccc3c1)C2` [Compound 73]: the IC50 in test [1] and in test [2] was no more than 40 nM throughout.
As to `O=C(C(F)F)N1CCC(c2cnc3cc(CN4Cc5ccccc5C4)ccc3n2)CC1` [Compound 103], the values for the IC50 in test [1] and in test [2] were 40 to 100 nM and no less than 101 nM, respectively.
The corresponding values for `CC(c1cc(=O)c2oc([C@H]3CC[C@H](O)CC3)cc2o1)N1Cc2ccccc2C1` (stereo partly drawn) [Compound 31] are no more than 40 nM and no more than 40 nM.
Turning to `Cc1oc(CN2Cc3ccccc3C2)cc(=O)c1OCC1CCN(S(C)(=O)=O)CC1` [Compound 6], the results for the 50% inhibitory concentration (IC50) in test [1] and in test [2] were no more than 40 nM and 41 to 100 nM, respectively.
For `CC(C)OC(=O)N1CCC(c2cnc3cc(CN4Cc5ccccc5C4)ccc3n2)CC1` [Compound 112], the IC50 was 40 to 100 nM in test [1] and 41 to 100 nM in test [2].
As for `CS(=O)(=O)N1CCC(c2cc(=O)c3nc(CN4Cc5ccccc5C4)ccc3o2)CC1` [Compound 61], the figures for the IC50 in test [1] and in test [2] were no less than 100 nM and no less than 101 nM, respectively.
Taken in the same sequence, the figures for `CS(=O)(=O)N1CCC(c2nc3cc(CN4Cc5ccccc5C4)ccc3s2)CC1` [Compound 128] were no more than 40 nM and 41 to 100 nM.
Taken in the same sequence, the figures for `CC(c1ncc(OCC2CCN(S(C)(=O)=O)CC2)c2ncccc12)N1Cc2ccccc2C1` (stereo not drawn) [Compound 12] were no more than 40 nM and no more than 40 nM.
With `O=c1cc(CN2Cc3ccccc3C2)occ1OC[C@H]1CC[C@H](O)CC1` [Compound 2], the IC50 in test [1] and in test [2] was no more than 40 nM each time.

The values above are taken from patent publication US20260327234A1, “NOVEL COMPOUNDS AS CYP11A1 INHIBITORS AND METHODS OF USE THEREOF” (Shenzhen Ionova Life Science Co., Ltd., priority 2023, published 2026).
